These results are taken from ChEMBL document CHEMBL1139122, “Structure-activity relationship (SAR) studies of quinoxalines as novel HCV NS5B RNA-dependent RNA polymerase inhibitors” (Bioorg Med Chem Lett, 2007).

The assay is described as follows: Inhibition of HCV NS5B RdRp. Details: species or system Hepacivirus hominis.
On to `O=C(N[C@@H](Cc1c[nH]c2ccccc12)C(=O)O)c1ccc2nc(-c3ccccc3)c(C3CCCCC3)nc2c1`, for which the IC50 (as a rule, the concentration that inhibits the measured activity by half) was determined as 1.8 µM.
`O=C(N[C@@H](Cc1c[nH]c2ccc(O)cc12)C(=O)O)c1ccc2nc(C3CCCCC3)c(-c3ccccc3)nc2c1` yielded an IC50 of 5 µM.
As for `O=C(N[C@@H](Cc1c[nH]c2ccccc12)C(=O)O)c1ccc2nc(C3CCCCC3)c(-c3ccc(F)cc3)nc2c1`, the figure is 3.4 µM; as for `O=C(N[C@@H](Cc1c[nH]c2ccccc12)C(=O)O)c1ccc2nc(-c3ccc(F)cc3)c(C3CCCCC3)nc2c1`, 1.6 µM; as for `O=C(O)/C=C/c1ccc(NC(=O)c2ccc3nc(C4CCCCC4)c(-c4ccc(F)cc4)nc3c2)cc1`, 4.1 µM.
`O=C(N[C@@H](Cc1c[nH]c2ccc(O)cc12)C(=O)O)c1ccc2nc(-c3ccc(F)cc3)c(-c3ccc(F)cc3)nc2c1` returned an IC50 of 1.3 µM.
For the compound `Cc1ccc(-c2nc3ccc(C(=O)N[C@@H](Cc4c[nH]c5ccc(O)cc45)C(=O)O)cc3nc2-c2ccc(C)cc2)cc1`, the midpoint of inhibition, the IC50, lay at 6.1 µM.
As for `O=C(N[C@@H](Cc1c[nH]c2ccc(O)cc12)C(=O)O)c1ccc2nc(-c3ccccc3)c(C3CCCCC3)nc2c1`, the figure is 0.6 µM; as for `O=C(O)/C=C/c1ccc(NC(=O)c2ccc3nc(-c4ccc(F)cc4)c(C4CCCCC4)nc3c2)cc1`, 4.6 µM; as for `O=C(N[C@@H](Cc1c[nH]c2ccc(O)cc12)C(=O)O)c1ccc2nc(-c3ccc(F)cc3)c(C3CCCCC3)nc2c1`, 4.6 µM.
For the compound `O=C(O)/C=C/COc1ccc2[nH]cc(C[C@H](NC(=O)c3ccc4nc(-c5ccc(F)cc5)c(-c5ccc(F)cc5)nc4c3)C(=O)O)c2c1`, half-maximal inhibition (IC50) was put at 2.2 µM.
For the compound `O=C(O)/C=C/c1ccc(NC(=O)C2(NC(=O)c3ccc4nc(-c5ccc(F)cc5)c(-c5ccc(F)cc5)nc4c3)CCC2)cc1`, the IC50 was 0.69 µM.
`CCOC(=O)/C=C/c1ccc(NC(=O)C2(NC(=O)c3ccc4nc(C5CCCCC5)c(-c5ccc(F)cc5)nc4c3)CCC2)cc1` gave a half-maximal inhibitory concentration (IC50) of 5.1 µM.
Compound `CCOC(=O)/C=C/c1ccc(NC(=O)c2ccc3nc(-c4ccc(F)cc4)c(-c4ccc(F)cc4)nc3c2)cc1` gave a 50% inhibitory concentration (IC50) of over 100 µM.
For the compound `COC(=O)[C@H](Cc1c[nH]c2ccc(O)cc12)NC(=O)c1ccc2nc(-c3ccco3)c(-c3ccco3)nc2c1`, the IC50 was 26 µM.
In turn, `O=C(N[C@@H](Cc1c[nH]c2ccc(O)cc12)C(=O)O)c1ccc2nc(-c3ccccc3)c(-c3ccccc3)nc2c1` gave a half-inhibitory concentration (IC50) of 11 µM.
`COC(=O)[C@H](Cc1c[nH]c2ccc(O)cc12)NC(=O)c1ccc2nc(-c3ccc(C)cc3)c(-c3ccc(C)cc3)nc2c1` registered a half-maximal inhibitory concentration (IC50) of 49 µM.
As for `O=C(O)c1ccc2nc(-c3ccc(F)cc3)c(-c3ccc(F)cc3)nc2c1`, the figure is 5.5 µM; as for `O=C(O)c1ccc2nc(-c3ccco3)c(-c3ccco3)nc2c1`, 17 µM.
Compound `O=C(O)c1ccc2nc(-c3ccccc3)c(-c3ccccc3)nc2c1` displayed an IC50 of 79 µM.
As for `Cc1ccc(-c2nc3ccc(C(=O)O)cc3nc2-c2ccc(C)cc2)cc1`, the figure is 40 µM; as for `O=C(O)c1ccc2nc(-c3ccccn3)c(-c3ccccn3)nc2c1`, over 100 µM; as for `COC(=O)[C@H](Cc1c[nH]c2ccccc12)NC(=O)c1ccc2nc(-c3ccco3)c(-c3ccco3)nc2c1`, over 100 µM.
For the compound `O=C(N[C@@H](Cc1c[nH]c2ccccc12)C(=O)O)c1ccc2nc(-c3ccco3)c(-c3ccco3)nc2c1`, the midpoint of inhibition, the IC50, lay at 33 µM.
As to `COc1cccc(-c2nc3ccc(C(=O)N[C@@H](Cc4c[nH]c5ccc(O)cc45)C(=O)O)cc3nc2-c2cccc(OC)c2)c1`, the half-maximal inhibitory concentration (IC50) was 15 µM.
As for `O=C(O)/C=C/c1ccc(NC(=O)c2ccc3nc(-c4ccc(F)cc4)c(-c4ccc(F)cc4)nc3c2)cc1`, the figure is 17 µM; as for `COC(=O)[C@H](Cc1c[nH]c2ccc(O)cc12)NC(=O)c1ccc2nc(-c3ccc(F)cc3)c(-c3ccc(F)cc3)nc2c1`, 5.5 µM; as for `COC(=O)[C@H](Cc1c[nH]c2ccc(O)cc12)NC(=O)c1ccc2nc(-c3ccccc3)c(-c3ccccc3)nc2c1`, 72 µM.
For `O=C(N[C@@H](Cc1c[nH]c2ccccc12)C(=O)O)c1ccc2nc(C3CCCCC3)c(-c3ccccc3)nc2c1`, the IC50 was found to be 3.7 µM.
The compound `COC(=O)[C@H](Cc1c[nH]c2ccccc12)NC(=O)c1ccc2nc(-c3cccc(OC)c3)c(-c3cccc(OC)c3)nc2c1` came in with an IC50 of over 100 µM.
`O=C(N[C@@H](Cc1c[nH]c2ccc(O)cc12)C(=O)O)c1ccc2nc(C3CCCCC3)c(-c3ccc(F)cc3)nc2c1` returned a half-maximal inhibitory concentration (IC50) of 4.1 µM.
For `CCOC(=O)/C=C/c1ccc(NC(=O)C2(NC(=O)c3ccc4nc(-c5ccc(F)cc5)c(C5CCCCC5)nc4c3)CCC2)cc1`, 1.3 µM corresponded to half-maximal inhibition (IC50).
`COC(=O)[C@H](Cc1c[nH]c2ccccc12)NC(=O)c1ccc2nc(-c3ccccn3)c(-c3ccccn3)nc2c1` returned an IC50 of over 100 µM.
Take `O=C(O)COc1ccc2[nH]cc(C[C@H](NC(=O)c3ccc4nc(-c5ccc(F)cc5)c(-c5ccc(F)cc5)nc4c3)C(=O)O)c2c1`: half-maximal inhibition (IC50) was put at 1.7 µM.
In the case of `O=C(O)/C=C/c1ccc(NC(=O)c2ccc3nc(C4CCCCC4)c(-c4ccccc4)nc3c2)cc1`, the half-maximal inhibitory concentration (IC50) is 1.3 µM.
As for `O=C(Nc1ccc(-c2ccc(C(=O)O)o2)cc1)c1ccc2nc(C3CCCCC3)c(-c3ccccc3)nc2c1`, the figure is 1.8 µM; as for `COc1cccc(-c2nc3ccc(C(=O)N[C@@H](Cc4c[nH]c5ccccc45)C(=O)O)cc3nc2-c2cccc(OC)c2)c1`, over 100 µM; as for `O=C(Nc1ccc(-c2ccc(C(=O)O)o2)cc1)c1ccc2nc(-c3ccccc3)c(C3CCCCC3)nc2c1`, 1.6 µM.
Consider `COC(=O)[C@H](Cc1c[nH]c2ccc(O)cc12)NC(=O)c1ccc2nc(-c3cccc(OC)c3)c(-c3cccc(OC)c3)nc2c1`, for which the IC50 is over 100 µM.
Turning to `O=C(N[C@@H](Cc1c[nH]c2ccccc12)C(=O)O)c1ccc2nc(-c3ccc(F)cc3)c(-c3ccc(F)cc3)nc2c1`, half-maximal inhibition (IC50) was put at 1.9 µM.
In the case of `CCOC(=O)/C=C/c1ccc(NC(=O)C2(NC(=O)c3ccc4nc(-c5ccc(F)cc5)c(-c5ccc(F)cc5)nc4c3)CCC2)cc1`, the concentration for half-maximal inhibition (IC50) came to 37 µM.
Take `NC(=O)COc1ccc2[nH]cc(C[C@H](NC(=O)c3ccc4nc(-c5ccc(F)cc5)c(-c5ccc(F)cc5)nc4c3)C(=O)O)c2c1`: inhibition was half-maximal at 3.2 µM (IC50).
Compound `CCOC(=O)/C=C/c1ccc(NC(=O)C2(NC(=O)c3ccc4nc(-c5ccc(F)cc5)c(-c5ccc(F)cc5)nc4c3)CCCC2)cc1` yielded an IC50 of over 100 µM.
In turn, `O=C(O)/C=C/c1ccc(NC(=O)C2(NC(=O)c3ccc4nc(-c5ccc(F)cc5)c(-c5ccc(F)cc5)nc4c3)CCCC2)cc1` registered an IC50 of 1.2 µM.
`COC(=O)COc1ccc2[nH]cc(C[C@H](NC(=O)c3ccc4nc(-c5ccc(F)cc5)c(-c5ccc(F)cc5)nc4c3)C(=O)OC)c2c1` gave an IC50 of 100 µM.
`COC(=O)/C=C/COc1ccc2[nH]cc(C[C@H](NC(=O)c3ccc4nc(-c5ccc(F)cc5)c(-c5ccc(F)cc5)nc4c3)C(=O)OC)c2c1` had an IC50 of 53 µM.
`COC(=O)[C@H](Cc1c[nH]c2ccc(OCC(N)=O)cc12)NC(=O)c1ccc2nc(-c3ccc(F)cc3)c(-c3ccc(F)cc3)nc2c1` displayed an IC50 of 8.6 µM.
As for `O=C(N[C@@H](Cc1c[nH]c2ccccc12)C(=O)O)c1ccc2nc(-c3ccccc3)c(-c3ccccc3)nc2c1`, the figure is 15 µM; as for `COC(=O)[C@H](Cc1c[nH]c2ccccc12)NC(=O)c1ccc2nc(-c3ccccc3)c(-c3ccccc3)nc2c1`, over 100 µM.
Take `COC(=O)[C@H](Cc1c[nH]c2ccccc12)NC(=O)c1ccc2nc(-c3ccc(C)cc3)c(-c3ccc(C)cc3)nc2c1`: the 50% inhibitory concentration (IC50) was over 100 µM.
Consider `O=C(N[C@@H](Cc1c[nH]c2ccc(O)cc12)C(=O)O)c1ccc2nc(-c3ccco3)c(-c3ccco3)nc2c1`, for which it took 16 µM to reach half-maximal inhibition (IC50).
As for `COc1cccc(-c2nc3ccc(C(=O)O)cc3nc2-c2cccc(OC)c2)c1`, the figure is over 100 µM; as for `O=C(N[C@@H](Cc1c[nH]c2ccccc12)C(=O)O)c1ccc2nc(-c3ccccn3)c(-c3ccccn3)nc2c1`, over 100 µM; as for `COC(=O)[C@H](Cc1c[nH]c2ccccc12)NC(=O)c1ccc2nc(-c3ccc(F)cc3)c(-c3ccc(F)cc3)nc2c1`, over 100 µM.
